Experimental data: publication PMC12505902, “Inhibitors of trehalose-6-phosphate synthase activity in fungal pathogens compromise thermal tolerance pathways” (mBio, 2025)
Read-outs that look alike come from different tables or passages of the source.

Test system: C. deneoformans (JEC21)
Test: MIC dose-response assay in YPD
Assay type: cell-based
Conditions: Cryptococcus deneoformans
Method: Fig 4 4456dh inhibits the growth of Candida and Cryptococcus species. Two-fold dose response assays were performed against (A) C. albicans at 42°C and C. auris at 39°C, (B) C. glabrata at 42°C, and (C) C. neoformans, C. deneoformans, and C. gattii at 37°C. 4456dh was administered at the concentrations indicated. Cultures were grown in YPD at the listed temperatures for 48 hours for Candida species and 72 hours for Cryptococcus species. Experimental temperatures reflect the temperatures at which the fungi experience heat stress. Left: relative growth of treated samples was calculated by averaging technical triplicates and normalizing the OD600 of each treated well to the average OD600 of the untreated WT controls, after the absorbance due to the compound was subtracted. The MIC80 values, calculated based on the OD600 values, are indicated in the white text on each heat map. Right: representative spot assays show the ability of cells to grow after exposure to 4456dh and indicate fungicidal activity of 4456dh. […]
124 technical replicates. Growth, as determined by a reading of absorbance at 600 nm, was
125 normalized to untreated controls and was corrected for the absorbance of 4456dh in the YPD […]
129 overnight cultures was quantified by measuring the OD600 and corrected for the background
130 absorbance of the medium. Antifungal potency for 4456dh was assessed by minimum inhibitory […]
137 replicates. Growth, as determined by a reading of absorbance at 600 nm, was normalized to
138 untreated controls and was corrected for the absorbance of 4456dh in the YPD medium. […]
139 minimum inhibitory concentration causing 80% growth reduction, or MIC80, was determined based […]
157 Optical density (OD600) was determined with an Infinite PRO plate reader ( Tecan). […]

In the case of Cn1cc(-c2csc(NC(=O)Cc3ccccn3)n2)cn1 [Compound 4456dh], the MIC80 is reported as > 13000 µM, the MIC80 (37°C, YPD, 72 hours, read-out: MIC80) is reported as 3000 µM and the MIC80 (Supplemental Table 5, This publication, read-out: MIC80) is reported as 1190 µg/mL.
